We go through four compounds from patent publication US8592446B2, “[1,10]-phenanthroline derivatives for the treatment of neurodegenerative or haematological diseases” (Noscira, S.A., priority 2007, dated 2013).

Holding throughout (type): cell-based
Series [1] concerns SH-SY5Y human neuroblastoma cells. The series can be described thus: Toxicity: LDH activity release in SH-SY5Y cells. The conditions noted are these: 24 h; for Maximum concentration tested for toxicity: increasing concentrations from 1 μM up to 1 mM. As for the experimental part:
The potential effects on cell viability of the assayed compounds are assayed in SH-SY5Y human neuroblastoma cells, by quantification of Lactate dehydrogenase (LDH) activity release. SH-SY5Y human neuroblastoma cells are seeded into 96-well culture plates at 10^4 cells/well. The medium is then removed and the cells incubated with different concentrations of the compounds during 24 h. The compounds are tested at increasing concentrations starting from 1 μM, in fresh culture medium, in order to find the minimum concentration at which the compounds are toxic, up to a maximum of 1 mM. After 24 h, the medium is removed and cells attached to the bottom of the well are lysed by adding 50 μl of Krebs-Hepes; Triton X-100 1% during 5 minutes at room temperature. For LDH release quantification, the Roche cytotoxicity detection kit (Cat.
No. 11 644 793 001) is used. The LDH activity is measured by its absorbance at 492 nm with reference wavelength 620 nm.
In Table 1, for each compound the maximum concentration at which toxicity was tested is indicated in the second column. In the third column, it is indicated whether at this maximum concentration the compound was toxic or not. All the compounds, with the exception of Compound 3, resulted non-toxic at the concentration for which activity was found, in most of the cases even at a 1000-fold concentration. Thus, the compounds may be considered non-toxic.

Series [2] shares this test system. The series can be described thus: Protection against hydrogen peroxide-induced cell death (LDH). The conditions noted are these: Homo sapiens, SH-SY5Y, compound 1 h before H2O2 100 μM, 24 h, read-out: Protect. H2O2 (minimum concentration for which protection was determined). The method, then:
The aim of this assay is to determine the neuroprotective effect of the compounds of formula (I), when human neuroblastoma cells are exposed to oxidative stress induced by hydrogen peroxide, which is highly deleterious to the cell and its accumulation causes oxidation of cellular targets such as DNA, proteins, and lipids leading to mutagenesis and cell death.
SH-SY5Y human neuroblastoma cells are seeded into 96-well culture plate at a density of 10^4 cells/well. Cells are exposed to different concentrations of the compound one hour before the treatment with H2O2 100 μM during 24 h. 5 mM N-acetylcysteine (NAC), a known anti-oxidant agent was used as a positive control, and preincubated 1 hour before the treatment with H2O2. After 24 h, the medium is removed and cells attached to the bottom of the well are lysed by adding 50 μl of Triton X-100 1% in Krebs-Hepes during 5 minutes at room temperature. For LDH release quantification, Roche cytotoxicity detection kit (Cat. No. 11 644 793 001) was used.

For series [3] the test system is unchanged. The experiment in a line: Protection against 6-OHDA-induced cell death, condition A (10% foetal bovine serum). The conditions noted are these: preincubated 2 hours, 6-OHDA 75 μM 16 hours, read-out: Protect. 6-OHDA (+ FBS) (minimum concentration with neuroprotective effect). The source says: (§1) The aim of this experiment is to determine the protective effect of the compounds of formula (1) against the toxicity caused by 6-OHDA. This toxin induces a cell death similar to which occurs in Parkinson's disease, destroying dopaminergic neurons (“MPTP and 6-hydroxydopamine-induced neurodegeneration as models for Parkinson's disease: neuroprotective strategies”; Grunblatt E, et al.; J Neurol. 2000 Apr; 247 Suppl 2:II95-102).
(§2) Two or three days before the experiment, the SH-SY5Y human neuroblastoma cells are seeded into 96-well culture plate at a density of 10^4 cells/well. Cells are exposed to the treatment with 6-OHDA and, finally, cell death is measured by LDH quantification. As positive control we used NAC.
• A) NAC and the compound of formula (I) are preincubated during 2 hours before the treatment with 6-OHDA 75 μM during 16 hours. The assay is performed in medium containing 10% Foetal bovine serum.
(§3) For each compound the minimum concentration of compound of formula (I) at which a neuroprotective effect is shown.

For series [4] the test system is unchanged. The experiment in a line: Protection against 6-OHDA-induced cell death, condition B (no fetal bovine serum). To be noted: preincubated 1 hour, 6-OHDA 50 μM 24 hours, read-out: Protect. 6-OHDA (−FBS) (minimum concentration with neuroprotective effect).
Source text: as §1, §2
• B) NAC and the compound of formula (I) are preincubated during 1 hour before the treatment with 6-OHDA 50 μM during 24 hours. The assay is performed in a medium without any fetal bovine serum.
as §3

The next series relates to SH-SY5Y cells. The experiment in a line: Neuroprotection against Aβ25-35 toxicity (LDH assay). To be noted: Homo sapiens, pre-treated 1 hour, 200 μM Aβ25-35 24 hours, read-out: Protect. beta-Amyloid25-35 (minimum concentration showing neuroprotection). The method, then:
In order to evaluate potential neuroprotection of compounds, SH-SY5Y cells, cultured in 96-well plates, were pre-treated for 1 hour with the compound at different concentrations and then exposed 24 hours to 200 μM Aβ25-35 (Neosystem) to induce extensive oxidative stress and cell death. The ability of the compound of protecting against this toxicity is then evaluated by measuring intracellular LDH, using the colorimetric LDH assay.
It is widely accepted that the neurotoxic activity of Aβ resides within amino acids 25-35 (see e.g. Yankner B A et al., (1990) Neurotrophic and neurotoxic effects of amyloid β protein: reversal by tachykinin neuropeptides; Science 250:279-282).

In series [5] the test system is Aβ (1-40) secretion by CHO7W cells (stably transfected with human APP751 wt cDNA). The series can be described thus: Inhibition of Aβ(1-40) secretion (ELISA, cellular supernatants). To be noted: Aβ 1-40 ELISA; for minimal effective concentration: Homo sapiens, CHO-7W, read-out: Inhibition secretion beta-amyloid (minimum concentration). The source says:
To quantitate Aβ secretion ELISA-based method was used. The assay consists in detection of antigen by selective monoclonal anti-Aβ-antibodies at two different epitopes forming a “Sandwich-complex”, that is detected by colorimetric measure due to the binding of a secondary antibody conjugated with peroxidase that catalyses the conversion of a substrate or chromogen, TMB, into a coloured product, directly proportional to the peptide quantity in the sample. The Aβ production has been analyzed by ELISA, using a colorimetric commercial kit: Immunoassay Kit Human β Amyloid 1-40 (Biosource).
Aβ (1-40) were quantified from cellular supernatants. An APP-transfected cell line has been employed for the experiments: CHO7W (stably transfected with human APP751 wt cDNA). The cells were grown in a culture medium consisting of DMEM supplemented with 2% Fetal bovine serum, 1% penicillin-streptomycin, 1% L-glutamine and 200 μg/ml G418. Cells are seeded in 96-well culture microplate, at 5000 cells/well and treatment with different compounds at different concentrations is performed 24 hour after seeding.
OM99-2 (H-5108, Bachem), a BACE inhibitor, was used as Aβ secretion reduction positive control in all the Aβ secretion studies. The cells were treated with this compound at 3 μM concentration, culture media were collected at 24 hours.
(In general: An ELISA detects its analyte on a solid surface through an enzyme-linked reagent.)

As for `CN(C)C(=O)CSc1cc(C=NO)nc2c1ccc1cccnc12` [Compound 12, 2-[2-(Hydroxyimino-methyl)-[1,10]phenanthrolin-4-ylsulfanyl]-N,N-dimethyl-acetamide], the “Maximum concentration tested for toxicity” value in series [1] turned out to be 1000 µM. The “Toxic at maximum concentration tested (Yes/No)” value (“Toxic … (Yes/No)” for short) in series [1] (at 1000 μM) is recorded as “No”. The minimal effective concentration in series [2] was 0.1 µM; in series [3], 0.1 µM; in series [4], 0.5 µM; in the series on SH-SY5Y cells, 10 µM; in series [5], 1 µM.
As for `O=C(O)CSc1cc(C=NO)nc2c1ccc1cccnc12` [Compound 16, [2-(Hydroxyimino-methyl)-[1,10]phenanthrolin-4-ylsulfanyl]-acetic acid], in series [1], the “Maximum concentration tested for toxicity” value amounted to 10 µM. For the same compound, the “Toxic … (Yes/No)” value in series [1] (at 10 μM) was “Yes”. Besides, the minimal effective concentration in series [2] was found to be 0.05 µM; in series [3] it was 0.5 µM; in series [4] it was 10 µM; in the series with SH-SY5Y cells it was 5 µM; in series [5], 1 µM.
Consider `ON=Cc1cc(Cl)c2ccc3cccnc3c2n1` [Compound 2, 4-Chloro-[1,10]phenanthroline-2-carbaldehyde oxime], for which the “Maximum concentration tested for toxicity” value in series [1] was 1000 µM. The “Toxic … (Yes/No)” value in series [1] (at 1 mM) was “Yes”. For the same compound, the minimal effective concentration in series [2] turned out to be 0.05 µM; in series [3] it was 0.5 µM; in series [4], 0.5 µM; with SH-SY5Y cells it was 10 µM. Further, the “Inhibition secretion beta-amyloid (minimum concentration)” value in series [5] is reported as 1 mM.
Regarding `Cc1nnc(Sc2cc(C=NO)nc3c2ccc2cccnc23)s1` [Compound 18, 4-(5-Methyl-[1,3,4]thiadiazol-2-ylsulfanyl)-[1,10]phenanthroline-2-carbaldehyde oxime], the “Maximum concentration tested for toxicity” value in series [1] came to 10 µM. In addition, the “Toxic … (Yes/No)” value in series [1] (at 10 μM) was “Yes”. Moreover, the minimal effective concentration turned out to be 0.05 µM in series [2]; 0.05 µM in series [3]; 10 µM in series [4]; 10 µM with SH-SY5Y cells; 0.1 µM in series [5].
